System: A549 cells
Experiment: Transfection of A549 cells with POP:cholesterol vesicles complexed to pCMV-sport-β-gal plasmid (β-galactosidase activity, absorbance 420 nm)
Format: cell-based
Conditions: 50 μM chloroquine added during transfection with POP:cholesterol vesicle-plasmid complexes
Description: Transfection experiments were carried out with the endotoxin free pCMV-sport-β-gal plasmid. 96-well plates were seeded with A549 calls (10,000 cells well^−1, 50,000 cells mL^−1) and incubated overnight with DMEM/F10+10% foetal calf serum (FCS)-Life Sciences, UK in 2% CO2 at 37° C. […] The mixture was incubated for 4 h (2% CO2, 37° C.) after which the media and POP-plasmid complexes were removed and replaced with DMEM/F10+10% FCS (0.2 mL). Cells were fed daily (DMEM/F10+10% FCS) over a 48 h period at the end of which they were lysed by the addition of 0.05 mL triton X-100 buffer (0.1% triton X-100, 0.25M tris hydrochloride, pH=8.0). The cells were then frozen at −70° C. and thawed at room temperature and 0.5% bovine serum albumin in phosphate buffered saline (0.05 mL) added to each well. This was followed by the addition of 0.15 mL ONPG (o-nitrophenyl β-D-galactopyranoside) in buffer (0.06M sodium dibasic phosphate, 0.001M magnesium chloride, 0.01M potassium chloride, 0.05M β-mercaptoethanol, pH=8.0). β-galactosidase activity was estimated by measuring the absorbance (420 nm) on a microtitre plate reader.

For `CCN(CC)CCCC(C)Nc1ccnc2cc(Cl)ccc12` (stereo not shown) [chloroquine], the “Effect on transfection levels” value was “increase transfection levels”.
